Source: US20080045582A1, “ENA-78 Gene Polymorphisms and Protein Concentrations as Diagnostic and Prognostic Tools” (priority 2006, published 2008)

Tests used:
IL-6 = IL-6 production by non-stimulated human umbilical vein endothelial cells, multiplex protein measurement; assay type: cell-based; conditions: increasing concentration of atorvastatin (1-50 μM), 24 hours, FIG. 11A
Procedure: (§1) Human umbilical vein endothelial cells were obtained (Clonetics Cell Systems; Cambrex Bio Science Walkersville, Inc., Walkersville, Md.). Approximately 5×10^5 viable cells were seeded in endothelial cell growth-supplemented basal medium (EGM-2-endothelial cell medium-2; Cambrex Bio Science Walkersville, Inc.) and maintained at 37° C. under a 5% carbon dioxide atmosphere per manufacturer's protocol. The culture medium was changed 24 hours after seeding and every 48 hours thereafter until confluence. Cells were then treated with trypsin, seeded in a 48-well culture dish, and incubated under the conditions previously described. Cells used in this Example were from the third passage. […]
(§2) The culture-conditioned media protein content of epithelial neutrophil-activating peptide-78 (ENA-78), interleukin-8, (IL-8), monocyte chemotactic protein-1 (MCP-1), interleukin-6 (IL-6), interleukin-10 (IL-10), fibroblast growth factor (FGF), and granulocyte colony-stimulating factor (G-CSF) were measured by means of flow-based immunofluorescence multiplex detection (Fluorokine MAP Human Cytokine Panel; R&D Systems Inc., Minneapolis, Minn.) with the Luminex 100 IS platform (Luminex Corp., Austin, Tex.). […]

CXCL5 = CXCL5 gene expression in HUVECs, real-time RT-PCR normalized to GAPDH; assay type: cell-based, human
Procedure: Human umbilical vein endothelial cells (HUVECs) (Clonetics Cell Systems; Cambrex Bio Science Walkersville, Inc., Walkersville, USA) were cultured as previously described. Briefly, HUVECs between passes three and four were seeded at a density of 2.5×10^4 cells per cm^2 and cultured to 80% confluence with endothelial cell growth-supplemented medium (EGM-2-endothelial cell medium-2; Cambrex Bio Science Walkersville, Inc.). Once confluent, media was changed to serum free endothelial basal media (EBM-2-endothelial cell medium-2; Cambrex Bio Science Walkersville, Inc.) for 24 hours prior to treatment, in which EBM-2 media supplemented to a 2% FBS concentration was used. Treatments consisted of atorvastatin calcium (AT; LKT Laboratories Inc., St. […] All were dissolved in molecular grade water. All final DMSO concentrations were less then 0.1%. […] In experiments investigating the impact of AT on IL-1beta-stimulated ENA-78 production, HUVECs were pre-treated with AT followed by IL-1beta stimulation two hours later. […] In a separate set of experiments, cells were cultured with IL-1beta and AT in the presence or absence of mevalonate, FPP, and GGPP to determine whether AT inhibition of ENA-78 production was dependent on HMG-CoA reductase inhibition and subsequent downstream pathways. Cell culture supernates for all experiments were stored at -20° C. until analysis, which was performed within seven days. ENA-78 concentrations were measured and normalized to total protein content in cell culture supernates using cytometric immunofluorescence as previously described. Ribonucleic acid (RNA) was isolated using a commercial kit (RNeasy mini kit, Qiagen Inc., Valencia, USA). […] RNA quality was assessed by absorbance (Nanodrop, Nanodrop Technologies, Wilmington, USA). […] Statistical differences in normalized protein concentrations and gene expression levels were determined by one way ANOVA and post-hoc Tukey analysis. […]

ENA-78 = ENA-78 production by non-stimulated human umbilical vein endothelial cells, multiplex protein measurement; assay type: cell-based; conditions: 24 hours
Procedure: (§3) Human umbilical vein endothelial cells were obtained (Clonetics Cell Systems; Cambrex Bio Science Walkersville, Inc., Walkersville, Md.). Approximately 5×10^5 viable cells were seeded in endothelial cell growth-supplemented basal medium (EGM-2-endothelial cell medium-2; Cambrex Bio Science Walkersville, Inc.) and maintained at 37° C. under a 5% carbon dioxide atmosphere per manufacturer's protocol. The culture medium was changed 24 hours after seeding and every 48 hours thereafter until confluence. Cells were then treated with trypsin, seeded in a 48-well culture dish, and incubated under the conditions previously described. Cells used in this Example were from the third passage.
(§4) After cells reached 70-80% confluence in the culture dish, they were allowed to become quiescent in unsupplemented, serum-free medium for 24 hours before treatment and then placed in medium containing 2% fetal bovine serum. Atorvastatin (LKT Laboratories Inc., St. Paul, Minn.) was dissolved in dimethylsulfoxide (Sigma-Aldrich, St. Louis, Mo.). Cells were treated for 24 hours with atorvastatin 1-50 μM alone or with atorvastatin plus mevalonate 250 μM (Sigma-Aldrich). Controls were cells cultured without atorvastatin or atorvastatinmevalonate. […] All experiments were performed in duplicate.
(§5) After treatment, culture-conditioned media were collected, divided into aliquots, and stored at −80° C. for no longer than 7 days until multiplex measurement of chemokines, cytokines, and angiogenic factors was performed.
(§6) The culture-conditioned media protein content of epithelial neutrophil-activating peptide-78 (ENA-78), interleukin-8, (IL-8), monocyte chemotactic protein-1 (MCP-1), interleukin-6 (IL-6), interleukin-10 (IL-10), fibroblast growth factor (FGF), and granulocyte colony-stimulating factor (G-CSF) were measured by means of flow-based immunofluorescence multiplex detection (Fluorokine MAP Human Cytokine Panel; R&D Systems Inc., Minneapolis, Minn.) with the Luminex 100 IS platform (Luminex Corp., Austin, Tex.). Concentrations for each sample were normalized against milligrams of total protein by using a standard bicinchoninic acid protein assay (Pierce Biotechnology, Inc., Rockford, Ill.). Samples were assayed in duplicate.
(§7) Standard curves of best fit for each analyte were generated by plotting the median fluorescence intensities of the analyte standards against their known concentrations by using Beadview multiplex data analysis software version 1 (Upstate, Charlottesville, Va.).
(§8) Differences in biomolecular concentrations were compared by treatment group by applying one-way analysis of variance and a post-hoc Tukey's test as appropriate. The Jonckheere Terpstra test was performed to assess the trend for differences in biomolecular concentrations across concentrations of atorvastatin. […]

FGF = FGF production by non-stimulated human umbilical vein endothelial cells, multiplex protein measurement; assay type: cell-based; conditions: atorvastatin 1-50 μM, 24 hours, FIG. 12
Procedure: as §1, §2

IL-10 = IL-10 production by non-stimulated human umbilical vein endothelial cells, multiplex protein measurement; assay type: cell-based; conditions: atorvastatin 1-50 μM, 24 hours, FIG. 11B
Procedure: as §1, §2

IL-8 = IL-8 production by non-stimulated human umbilical vein endothelial cells, multiplex protein measurement; assay type: cell-based
Procedure: as §3, §4, §5, §6, §7
Differences in biomolecular concentrations were compared by treatment group by applying one-way analysis of variance and a post-hoc Tukey's test as appropriate. The Jonckheere Terpstra test was performed to assess the trend for differences in biomolecular concentrations across concentrations of atorvastatin. A p value below 0.05 was considered to indicate a statistically significant difference. Statistical analyses were performed with SPSS software, version 11.5 (SPSS Inc., Chicago, Ill.).

MCP-1 = MCP-1 production by non-stimulated human umbilical vein endothelial cells, multiplex protein measurement; assay type: cell-based
Procedure: as §3, §4, §5, §6, §7, §8

## CC(C)c1c(C(=O)Nc2ccccc2)c(-c2ccccc2)c(-c2ccc(F)cc2)n1CC[C@@H](O)C[C@@H](O)CC(=O)O [atorvastatin]
IL-6
  graded reduction of IL-6 production: 29-83%
CXCL5; AT alone, 24 hours, FIG. 17
  constitutive expression of CXCL5: significantly lowered
CXCL5; pre-treated with 10 μM of AT followed by IL-1beta in two hours
  CXCL5 expression compared to IL-1beta alone: no difference
ENA-78; escalating concentrations of atorvastatin (10 μM to 50 μM), FIG. 10A
  reduction in ENA-78 production compared with untreated controls: 45-85%
ENA-78; lower concentrations of atorvastatin
  ENA-78 production vs untreated control: not significantly altered
FGF
  concentrations of FGF: did not change
IL-10
  treatment effect on IL-10: no treatment effect
IL-8; 1st of the four atorvastatin groups (1-50 μM), 24 hours
  IL-8 concentrations lowered by: 26%
IL-8; 2nd of the four atorvastatin groups (1-50 μM), 24 hours
  IL-8 concentrations lowered by: 72%
IL-8; 3rd of the four atorvastatin groups (1-50 μM), 24 hours
  IL-8 concentrations lowered by: 83%
IL-8; 4th of the four atorvastatin groups (1-50 μM), 24 hours
  IL-8 concentrations lowered by: 89%
IL-8; 24 hours, FIG. 10B
  minimum effective concentration giving significant reduction in IL-8 compared with control: 5 µM
IL-8; atorvastatin 5 μM, 24 hours (control 551±69)
  IL-8 production: 155±45 pg/mg protein
MCP-1; concentrations of atorvastatin less than 50 μM
  MCP-1 concentrations vs control condition: did not significantly differ
MCP-1; highest concentration of atorvastatin (50 μM), 24 hours
  reduction in MCP-1: 83%
MCP-1; highest concentration of atorvastatin (50 μM), 24 hours (control 4556±514)
  MCP-1 production: 782±105 pg/mg protein
